Results reported in patent US20210253598A1, “ARYL ANNULATED MACROCYCLIC INDOLE DERIVATIVES” (priority 2017, published 2021).
Counter-ions that a name gives are not always drawn.

Key:
[1] = target: MCL-1 (Homo sapiens, UniProt Q07820, K194A/K197A/R201A); assay: Protein-protein interaction assay MCL-1/Noxa BH3 peptide, TR-FRET (MCL-1 assay, Assay 1); type: binding; conditions: MCL-1 Assay [M] (median), MBP-MCL-1 / Noxa BH3 peptide
Procedure, shortened: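 Human MBP-fused MCL-1 (aa 173-321; 1 nM final) was pre-incubated 10 min at 22 °C with compound in pH 7 Tris buffer containing NaCl, KF, Tween-20, DTT and BGG. Displacement of biotinylated Noxa BH3 peptide was read by TR-FRET (anti-MBP-Eu cryptate/streptavidin-XL665) after 1 h at 22 °C plus overnight at 4 °C. IC50 came from four-parameter fits against DMSO controls.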

[2] = target: BCL-XL (Homo sapiens, UniProt Q07817); assay: Protein-protein interaction assay BCL-XL/Bad BH3 peptide, TR-FRET (BCL-XL assay, Assay 2); type: binding; conditions: His-BCL-XL / Bad BH3 peptide, median
BCL-XL, sequence (Q07817 1-212): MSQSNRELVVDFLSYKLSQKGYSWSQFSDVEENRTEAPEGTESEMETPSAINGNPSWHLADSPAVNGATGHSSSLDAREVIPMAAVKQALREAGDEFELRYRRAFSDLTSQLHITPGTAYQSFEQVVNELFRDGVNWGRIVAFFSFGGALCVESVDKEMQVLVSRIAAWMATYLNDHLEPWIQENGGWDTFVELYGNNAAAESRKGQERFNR

[3] = system: SUDHL5; assay: Induction of caspase-3/7 activity in SUDHL5 cells (Assay 4); type: cell-based; conditions: read-out: Caspase SUDHL5 [M] (median), SUDHL5, 3 hours treatment, Caspase-Glo 3/7
Procedure, shortened: (§1)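 DLBCL lines SUDHL5 and SUDHL10 were treated with compound for 3 h at 37 °C. Caspase-3/7 activity was then read by Caspase-Glo 3/7 luminescence after 1 h at 37 °C. Medium-only background was subtracted and values were normalized to the mean of DMSO-treated cells.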

[4] = system: SUDHL10; assay: Induction of caspase-3/7 activity in SUDHL10 cells (Assay 4); type: cell-based; conditions: read-out: Caspase SUDHL10 [M] (median), SUDHL10, 3 hours treatment, Caspase-Glo 3/7
Procedure, shortened: as §1

[5] = system: SUDHL5; assay: Induction of cytotoxicity in SUDHL5 cells, CellTiter-Glo (Assay 6); type: cell-based; conditions: SUDHL5, 5 hours incubation, median, read-out: Cytotox SUDHL5 [M] (median)
Procedure, shortened: (§2)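 Cells plated and held overnight at 37 °C, then compound-treated for 5 h at 37 °C. Viability measured by CellTiter-Glo luminescence after 15 min shaking at room temperature; cell-free medium as background control.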

[6] = system: SUDHL10; assay: Induction of cytotoxicity in SUDHL10 cells, CellTiter-Glo (Assay 6); type: cell-based; conditions: SUDHL10, 5 hours incubation, median, read-out: Cytotox SUDHL10 [M] (median)
Procedure, shortened: as §2

[7] = system: SUDHL5; assay: Anti-proliferative effect in SUDHL5 cells, CellTiter-Glo (Assay 7); type: cell-based; conditions: read-out: Antiproli SUDHL5 [M] (median), SUDHL5, 72 hours incubation, CellTiter-Glo
Procedure, shortened: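 Proliferation is measured as luminescence from CellTiter-Glo after cells grow with compound for 72 h in a humidified 37 °C incubator. A reference plate read at time zero supplies the day 0 baseline, and DMSO wells serve as control for IC50 calculation.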

MCL-1, sequence (Q07820 173-321 K194A/K197A/R201A, looked up): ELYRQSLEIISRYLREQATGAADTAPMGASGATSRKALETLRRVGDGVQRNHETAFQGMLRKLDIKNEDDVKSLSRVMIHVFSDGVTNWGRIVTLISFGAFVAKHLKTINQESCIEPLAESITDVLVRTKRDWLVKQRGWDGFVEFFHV

In the case of `Cc1c2c(nn1C)COCc1ccccc1Cn1c(C(=O)O)c(CCCOc3cccc4ccccc34)c3ccc(F)c-2c31` (single isomer, unassigned; enantiomer 1) [Example 68, (−)-3-Fluoro-4,5-dimethyl-17-{3-[(naphthalen-1-yl)oxy]propyl}-5,7,9,14-tetrahydroindolo[7,1-fg]pyrazolo[3,4-d][2,8]benzoxazacycloundecine-16-carboxylic acid-N-ethylethanamine Salt (Enantiomer 1)], the IC50 [1] is reported as 3.2e-09 M, the IC50 [2] is reported as > 20 µM and the EC50 [3] is reported as 1.2e-06 M. For the same compound, the EC50 [4] was 1.1e-05 M, the IC50 [5] was 1.9e-06 M and the IC50 [6] was 4.6e-06 M. The IC50 [7] was 1.4e-06 M.
